The record followed here is patent publication US10246442B2, “4-Aminoquinazolin compounds as prolyl hydroxylase inhibitors” (JANSSEN PHARMACEUTICA NV, priority 2011, dated 2019).

The structures appear in SMILES notation.

The test system of one assay is HIF1-α, Hela cells. The assay can be described thus: Cellular assay for HIF1-α in Hela cells. The format is cell-based. The settings on record: Homo sapiens, 100 μM compound, 6 hours, percent of HIF stimulation relative to assay control compound 7-[(4-Chloro-phenyl)-(5-methyl-isoxazol-3-ylamino)-methyl]-quinolin-8-ol. The procedure:
Cellular Assay for HIF1-α
Hela cells (ATCC, Manassas, Va.) were plated in 96-well plates at 20,000 cells per well in 100 μl of DMEM containing 10% fetal bovine serum, 1% non-essential amino acids, 50 IU/mL of penicillin and 50 μg/mL of streptomycin (all cell culture reagents from Invitrogen, Carlsbad, Calif.). 24 hours after plating, changed media to 100 ul of DMEM without 10% fetal bovine serum, 1.1 μl of the stock solution for each compound was added and incubated for 6 hours. All compounds were tested with a final compound concentration of 100 μM. The supernatant was removed and the cells were lysed in 55 μl of MSD lysis buffer containing protease inhibitors. 50 μl of the cell lysate was then transferred to a blocked MSD human HIF-1α detection plate (Meso-Scale Discovery, Gaithersburg, Md., as per manufacturers protocol), and incubated at room temperature on an orbital shaker for 2 hour. After 3 washes in PBS, 25 μl of 20 nM anti-HIF1α a detection antibody was added and incubated for 1 hour at room temperature on an orbital shaker. After 3 washes in PBS, 150 μl of 1× read buffer was added and the plate was then read on a MSD SECTOR instrument. Data was analyzed by determining the percent of HIF stimulation in the presence of 100 μM compound relative to an assay control compound, 7-[(4-Chloro-phenyl)-(5-methyl-isoxazol-3-ylamino)-methyl]-quinolin-8-ol.

In a further assay the target is PHD2181-417 (Homo sapiens (Human), UniProt Q9GZT9). Nature of the assay: PHD enzymatic assay ([14C]-succinic acid production). The following applies: purified PHD2181-417, HIF-1α peptide substrate, 30 min pre-incubation; average of results. The class given is biochemical. A digest of the protocol:
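Recombinant human PHD2 (aa 181-417, E. coli-expressed, tags cleaved) with peptide substrate (10 μM) and [5-14C]-2-oxoglutarate in Tris pH 7.5 with catalase, DTT and ascorbate, 10 min reaction after 30 min compound pre-incubation; compounds at 100 μM final, 1% DMSO. [14C]-succinate separated by DNP precipitation and beta-counted; IC50 from three-parameter logistic fit.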

In assay [1] the test system is Erythropoietin secretion, Hep-3B cells. Nature of the assay: Cellular assay: EPO secretion in Hep-3B cells. The format is cell-based. The settings on record: Homo sapiens, Hep3B, 100 μM compound, 24 hours, percent of EPO secretion relative to assay control compound 7-[(4-Chloro-phenyl)-(5-methyl-isoxazol-3-ylamino)-methyl]-quinolin-8-ol, read-out: Cellular % EPO Stimulation. Put shortly:
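Compounds at 100 μM final were added to Hep-3B cells 24 h after plating and left for 24 h. Secreted EPO in supernatant measured by MSD electrochemiluminescence immunoassay. Reported as percent EPO secretion relative to an 8-hydroxyquinoline reference control compound.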

Sequence of PHD2181-417 (Q9GZT9 181-417): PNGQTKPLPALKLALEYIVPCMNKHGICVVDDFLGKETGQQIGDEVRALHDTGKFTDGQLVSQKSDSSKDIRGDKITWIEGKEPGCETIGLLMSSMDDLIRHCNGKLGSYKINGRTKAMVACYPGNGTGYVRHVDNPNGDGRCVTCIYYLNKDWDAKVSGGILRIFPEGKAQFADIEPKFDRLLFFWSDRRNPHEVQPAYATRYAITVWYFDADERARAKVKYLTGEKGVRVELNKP

In the case of `CC(C)(C)Nc1nc(-n2cc(C(=O)O)cn2)nc2ccc(Oc3ccccc3)cc12` [Example 72, 1-(4-(tert-Butylamino)-6-phenoxyquinazolin-2-yl)-1H-pyrazole-4-carboxylic acid], the activation at 100 µM in the assay on HIF1-α, Hela cells stood at 32%. Moreover, the “Enzyme pIC50” value on PHD2181-417 is 6.7.
As to `CCN(CC)c1nc(-n2cc(C(=O)O)cn2)nc2ccc(Oc3ccccc3)cc12` [Example 74, 1-(4-(Diethylamino)-6-phenoxyquinazolin-2-yl)-1H-pyrazole-4-carboxylic acid], the activation at 100 µM in the assay with HIF1-α, Hela cells is 81%. Moreover, at PHD2181-417, the “Enzyme pIC50” value came to 7.3.
The molecule `O=C(O)c1cnn(-c2nc(NC3CCOCC3)c3cc(Oc4ccccc4)ccc3n2)c1` [Example 76, 1-(6-Phenoxy-4-((tetrahydro-2H-pyran-4-yl)amino)quinazolin-2-yl)-1H-pyrazole-4-carboxylic acid] returned an activation at 100 µM with HIF1-α, Hela cells of 19%. Also, the “Enzyme pIC50” value at PHD2181-417 is 6.5.
In the case of `O=C(O)c1cnn(-c2nc(N3CCCC3)c3ccc(Oc4ccccc4)cc3n2)c1` [Example 78, 1-(7-Phenoxy-4-(pyrrolidin-1-yl)quinazolin-2-yl)-1H-pyrazole-4-carboxylic acid], the activation at 100 µM with HIF1-α, Hela cells was 64%; in assay [1] it was 38%. In addition, the “Enzyme pIC50” value at PHD2181-417 turned out to be 7.3.
As for `CN(C)c1nc(-n2cc(C(=O)O)cn2)nc2cc(-c3ccccc3)ccc12` [Example 80, 1-(4-(Dimethylamino)-7-phenylquinazolin-2-yl)-1H-pyrazole-4-carboxylic acid], the activation at 100 µM in the assay with HIF1-α, Hela cells was determined as 7.8%. Also, at PHD2181-417, the “Enzyme pIC50” value is 6.0.
The corresponding values for `O=C(O)c1cnn(-c2nc(N3CCCC3)c3ccc(-c4ccccc4)cc3n2)c1` [Example 81, 1-(7-Phenyl-4-(pyrrolidin-1-yl)quinazolin-2-yl)-1H-pyrazole-4-carboxylic acid] are 10% and 5.5.
As to `O=C(O)c1cnn(-c2nc(N3CCCCC3)c3ccc(-c4ccccc4)cc3n2)c1` [Example 82, 1-(7-Phenyl-4-(piperidin-1-yl)quinazolin-2-yl)-1H-pyrazole-4-carboxylic acid], the activation at 100 µM with HIF1-α, Hela cells was 4.6%. Besides, the “Enzyme pIC50” value on PHD2181-417 was determined as 6.1.
In the case of `O=C(O)c1cnn(-c2nc(NCC3CCCCC3)c3ccc(Oc4ccccc4)cc3n2)c1` [Example 84, 1-(4-((Cyclohexylmethyl)amino)-7-phenoxyquinazolin-2-yl)-1H-pyrazole-4-carboxylic acid], the activation at 100 µM in the assay on HIF1-α, Hela cells amounted to 4.6%. Besides, the “Enzyme pIC50” value on PHD2181-417 came to 6.8.
The corresponding values for `CC(C)C1CCN(c2nc(-n3cc(C(=O)O)cn3)nc3cc(Oc4ccccc4)ccc23)CC1` [Example 85, 1-(4-(4-isopropylpiperidin-1-yl)-7-phenoxyquinazolin-2-yl)-1H-pyrazole-4-carboxylic acid] are 1.7% and 6.8.
The corresponding values for `O=C(O)c1cnn(-c2nc(NC3CC3)c3ccc(Oc4ccccc4)cc3n2)c1` [Example 86, 1-(4-(Cyclopropylamino)-7-phenoxyquinazolin-2-yl)-1H-pyrazole-4-carboxylic acid] are 13% and 6.3.
`CCN(CC)c1nc(-n2cc(C(=O)O)cn2)nc2ccc(N3CCCCC3)cc12` [Example 88, 1-(4-(Diethylamino)-6-(piperidin-1-yl)quinazolin-2-yl)-1H-pyrazole-4-carboxylic acid]: the activation at 100 µM in the assay with HIF1-α, Hela cells turned out to be 122%; in assay [1], 94%. For the same molecule, the “Enzyme pIC50” value on PHD2181-417 is listed as 7.0.
For `O=C(O)c1cnn(-c2nc(N3CCOCC3)c3ccc(Oc4ccccc4)cc3n2)c1` [Example 89, 1-(4-Morpholino-7-phenoxyquinazolin-2-yl)-1H-pyrazole-4-carboxylic acid], the activation at 100 µM with HIF1-α, Hela cells stood at 17%. Further, the “Enzyme pIC50” value at PHD2181-417 is on record as 6.2.
In the case of `O=C(O)c1cnn(-c2nc(N3CCSCC3)c3ccc(Oc4ccccc4)cc3n2)c1` [Example 90, 1-(7-Phenoxy-4-thiomorpholinoquinazolin-2-yl)-1H-pyrazole-4-carboxylic acid], in the assay with HIF1-α, Hela cells, the activation at 100 µM is 7.7%. The “Enzyme pIC50” value at PHD2181-417 is on record as 6.3.
In the assay with HIF1-α, Hela cells, `O=C(O)c1cnn(-c2nc(N3CCC(F)CC3)c3ccc(Oc4ccccc4)cc3n2)c1` [Example 91, 1-(4-(4-Fluoropiperidin-1-yl)-7-phenoxyquinazolin-2-yl)-1H-pyrazole-4-carboxylic acid] returned an activation at 100 µM of 18%. Further, at PHD2181-417, the “Enzyme pIC50” value worked out at 6.3.
As to `CCCCN(CCCC)c1nc(-n2cc(C(=O)O)cn2)nc2cc(Oc3ccccc3)ccc12` [Example 92, 1-(4-(Dibutylamino)-7-phenoxyquinazolin-2-yl)-1H-pyrazole-4-carboxylic acid], the activation at 100 µM with HIF1-α, Hela cells is 4.1%. In addition, the “Enzyme pIC50” value at PHD2181-417 is reported as 7.1.
In turn, `CCN(C)c1nc(-n2cc(C(=O)O)cn2)nc2cc(Oc3ccccc3)ccc12` [Example 94, 1-(4-(Ethyl(methyl)amino)-7-phenoxyquinazolin-2-yl)-1H-pyrazole-4-carboxylic acid] displayed an activation at 100 µM in the assay on HIF1-α, Hela cells of 83%. At PHD2181-417, the “Enzyme pIC50” value came to 7.2.
`COCCN(C)c1nc(-n2cc(C(=O)O)cn2)nc2cc(Oc3ccccc3)ccc12` [Example 95, 1-(4-((2-Methoxyethyl)(methyl)amino)-7-phenoxyquinazolin-2-yl)-1H-pyrazole-4-carboxylic acid] returned an activation at 100 µM with HIF1-α, Hela cells of 46%. For the same molecule, the “Enzyme pIC50” value on PHD2181-417 worked out at 6.8.
For `CCN(CC)c1nc(-n2cc(C(=O)O)cn2)nc2cc(Br)ccc12` [Example 96, 1-(7-Bromo-4-(diethylamino)quinazolin-2-yl)-1H-pyrazole-4-carboxylic acid] the same measures were 72% and 6.9.
For `O=C(O)c1cnn(-c2nc(NC3CCCCC3)c3ccc(Oc4ccccc4)cc3n2)c1` [Example 97, 1-(4-(Cyclohexylamino)-7-phenoxyquinazolin-2-yl)-1H-pyrazole-4-carboxylic acid] the same measures were 55% and 7.0.
For `O=C(O)c1cnn(-c2nc(NCC3CC3)c3ccc(Oc4ccccc4)cc3n2)c1` [Example 98, 1-(4-((Cyclopropylmethyl)amino)-7-phenoxyquinazolin-2-yl)-1H-pyrazole-4-carboxylic acid] the same measures were 46% and 6.7.
For `CC(C)(C)Nc1nc(-n2cc(C(=O)O)cn2)nc2cc(Oc3ccccc3)ccc12` [Example 99, 1-(4-(tert-Butylamino)-7-phenoxyquinazolin-2-yl)-1H-pyrazole-4-carboxylic acid], the activation at 100 µM in the assay with HIF1-α, Hela cells amounted to 31%. For the same molecule, the “Enzyme pIC50” value at PHD2181-417 turned out to be 6.3.
